The first experiment deals with β-catenin-TCF-mediated reporter transcription activity in Colo 205 cells. Put plainly: Colo 205 reporter assay (TCF/LEF promoter-driven firefly luciferase). It is filed as cell-based. The note with it: Homo sapiens; Colo 205 TCF/LEF luciferase reporter, 5 hours after compound addition, 384 well; read-out: Colo205 IC50. From the text: The compounds of the invention described herein were screened using the assay procedure for β-catenin-TCF-mediated reporter transcription activity described below.
Reporter cell lines were generated by stably transfecting cells of cancer cell lines (e.g., colon cancer) with a plasmid reporter construct (From SABiosciences, a QIAGEN company) that includes TCF/LEF promoter driving expression of the firefly luciferase gene. TCF/LEF reporter constructs were made in which TCF/LEF promoter, a promoter with optimal number of TCF/LEF binding sites designed by SABiosciences, was linked upstream of the firefly luciferase gene. This construct could also include a puromycin resistance gene as a selectable marker. This construct could also be used to stably transfect Colo 205 cells, a colon cancer cell line having a mutated APC gene that causes a constitutively active β-catenin. A control cell line was generated using another plasmid construct containing the luciferase gene under the control of a CMV basal promoter which is not activated by β-catenin.
Colo 205 Cultured cells with a stably transfected reporter construct were plated at approximately 10,000 cells per well into 384 well multi-well plates for twenty four hours. The testing compounds were then added to the wells in 2-fold serial dilutions using a twenty micromolar top concentration. A series of control wells for each cell type received only compound solvent. Five hours after the addition of compound, reporter activity for luciferase was assayed, by addition of the SteadyGlo luminescence reagent (Promega). The reporter luminescence activity was measured using Pherastar plate reader (BMG Labtech). Readings were normalized to DMSO only treated cells, and normalized activities were then used in the IC50 calculations. The Colo 205 reporter assay data are summarized in Table 3: A<0.3 μM; 0.3 μM≤B<1.0 μM; 1.0 μM≤C<5.0 μM; D≥5.0 μM.
Background: Reporter assays use an easily measured gene product as a stand-in for the process of interest.
Take `CSc1ccccc1C1CCCCCN1c1cc(C)nc(N)n1` (racemic) [I-5, (+/−)-4-methyl-6-(2-(2-(methylthio)phenyl)azepan-1-yl)pyrimidin-2-amine]: the IC50 lay within 0.3 to 1 µM. Same read-out and setting: next, `Cc1cc(N2CCCOCC2c2ccccc2Cl)nc(N)n1` (racemic) [I-19, (+/−)-4-[3-(2-chlorophenyl)-1,4-oxazepan-4-yl]-6-methyl-pyrimidin-2-amine]: under 0.3 µM; `Cc1cc(N2CCCOCC2c2ccccc2F)nc(N)n1` (racemic) [I-32, (+/−)-4-[3-(2-fluorophenyl)-1,4-oxazepan-4-yl]-6-methyl-pyrimidin-2-amine]: under 0.3 µM; `Cc1cc(N2CCCOCC2c2ccc(F)cc2Cl)nc(N)n1` (racemic) [I-63, (+/−)-4-[3-(2-chloro-4-fluoro-phenyl)-1,4-oxazepan-4-yl]-6-methyl-pyrimidin-2-amine]: 0.3 to 1 µM. Still for that read-out and setting: as for `Cc1cc(N2CCCOCC2c2ccc(S(C)(=O)=O)cc2Cl)nc(N)n1` (racemic) [I-66, (+/−)-4-(3-(2-chloro-4-(methylsulfonyl)phenyl)-1,4-oxazepan-4-yl)-6-methylpyrimidin-2-amine], the figure is 1 to 5 µM; as for `COc1cc(S(C)(=O)=O)ccc1C1CCCCCN1c1cc(C)nc(N)n1` (racemic) [I-88, (+/−)-4-(2-(2-methoxy-4-(methylsulfonyl)phenyl)azepan-1-yl)-6-methylpyrimidin-2-amine], 0.3 to 1 µM; as for `COc1ccc(OC)c(C2COCCCN2c2cc(C)nc(N)n2)c1` (racemic) [I-93, (+/−)-4-[3-(2,5-dimethoxyphenyl)-1,4-oxazepan-4-yl]-6-methyl-pyrimidin-2-amine], 0.3 to 1 µM.

The next experiment has as its system XBP1(u)-luciferase splicing reporter in HepG2 hepatoma cells. Put plainly: HepG2 XBP1 reporter assay (XBP1(u)-Luc). The note with it: Homo sapiens, 6 h, six hours after addition of compound. It is filed as cell-based. From the text: HepG2 XBP1 Reporter Assay
HepG2 hepatoma cells were transduced with a retrovirus encoding the cDNA for unspliced (u) XBP1, which contains a non-processed intron, fused to the cDNA for firefly luciferase. Upon induction of ER stress, the non-processed intron of XBP1(u) is spliced out by active IRE1alpha endonuclease. The resulting spliced (s) XBP1 is now in frame with luciferase which causes the production of active luciferase protein, resulting in bioluminescence
HepG2 XBP1(u)-Luc cells were plated […] Cultured cells with a stably transfected reporter construct were plated at approximately 30,000 cells per well into 96 well multi-well plates for twenty four hours. The testing compounds were then added to the wells in 3-fold serial dilutions using a twenty seven micromolar top concentration. A series of control wells for each cell type received only compound solvent. Six hours after the addition of compound, reporter activity for luciferase was assayed, by addition of the SteadyGlo luminescence reagent (Promega). The reporter luminescence activity was measured using Pherastar plate reader (BMG Labtech). Readings was normalized to DMSO only treated cells, and normalized activities were then used in the IC50 calculations. The HepG2 XBP1 reporter assay data are summarized in Tables 3-5: A<0.6 μM; 0.6 μM≤B<2.0 μM; 2.0 μM≤C<5.0 μM; D≥5.0 μM.
In turn, `Cc1cc(N2CCCOCC2c2cc3c(cc2Cl)NC[C@@](C)(C(=O)NC2CC2)O3)nc(N)n1` (stereo partly drawn) [D-122] displayed an IC50 of under 0.6 µM. On the same count and under the same terms, next, `Cc1cc(N2CCCOC[C@@H]2c2cc(O)c(C(=O)NC(C)C)cc2Cl)nc(N)n1` [D-123]: 2 to 5 µM; `Cc1cc(N2CCCOCC2c2cc3c(cc2Cl)NC[C@@](C)(C(=O)NC(C)C)O3)nc(N)n1` (stereo partly drawn) [D-124]: under 0.6 µM; `Cc1cc(N2CCCOCC2c2cc3c(cc2Cl)NC[C@@](C)(C(=O)OC(C)C)O3)nc(N)n1` (stereo partly drawn) [D-125]: under 0.6 µM. The same measure, in the same setting: next, `Cc1cc(N2CCCOC[C@@H]2c2cc3c(cc2Cl)NC[C@@](C)(C(=O)N2CCOCC2)O3)nc(N)n1` [D-126]: under 0.6 µM; `COc1cc(OC)c(C2COCCCN2c2cc(C)nc(N)n2)cc1O` [D-127]: under 0.6 µM. The compound `Cc1cc(N2CCCOC[C@H]2c2cc3c(cc2Cl)NC[C@@](C)(C(=O)OC(C)C)O3)nc(N)n1` [D-128] registered an IC50 of 0.6 to 2 µM. Regarding `CCOC(=O)c1cc(C2COCCCN2c2cc(C)nc(N)n2)c(Cl)cc1C#N` [D-129], the IC50 was at least 5 µM. The same measure, in the same setting: as for `Cc1cc(N2CCCOC[C@@H]2c2cc(O)c(C(=O)NCCO)cc2Cl)nc(N)n1` [D-130], the figure is at least 5 µM; as for `Cc1cc(N2CCCOC[C@@H]2c2cc(O)c(C(=O)NC3CC3)cc2Cl)nc(N)n1` [D-131], at least 5 µM; as for `Cc1cc(N2CCCOC[C@@H]2c2cc3c(cc2Cl)NC[C@@](C)(C(=O)N(C)C)O3)nc(N)n1` [D-132], under 0.6 µM. Still for that read-out and setting: as for `Cc1cc(N2CCCOC[C@@H]2c2cc3c(cc2Cl)NC[C@@](C)(C(=O)NCCO)O3)nc(N)n1` [D-133], the figure is under 0.6 µM; as for `CCOC(=O)c1cc(Cl)c(C2COCCCN2c2cc(C)nc(N)n2)cc1C#N` [D-134], at least 5 µM; as for `COC(=O)c1cc(Cl)c(C2COCCCN2c2cc(C)nc(N)n2)cc1C#N` [D-135], at least 5 µM. Still for that read-out and setting: next, `Cc1cc(N2CCCOCC2c2ccc(C(C)(C)S(C)(=O)=O)cc2Cl)nc(N)n1` [D-136]: under 0.6 µM; `Cc1cc(N2CCCOC[C@@H]2c2cc(O)c(C(=O)N3CCOCC3)cc2Cl)nc(N)n1` [D-137]: under 0.6 µM. `CS(=O)(=O)c1ccc(C2COCCCN2c2ccnc(N)n2)c(Cl)c1` [D-138] came in with an IC50 of at least 5 µM. Still for that read-out and setting: as for `Cc1cc(N2CCCOC[C@@H]2c2ccc([C@H](C)S(C)(=O)=O)cc2Cl)nc(N)n1` [D-139], the figure is 0.6 to 2 µM; as for `Cc1cc(N2CCCOCC2c2ccc(Br)cc2OC(F)(F)F)nc(N)n1` [D-140], at least 5 µM; as for `Cc1cc(N2CCCOCC2c2cc(CC(=O)O)c(C#N)cc2Cl)nc(N)n1` [D-156], at least 5 µM.

On to `CCOc1cc(C2COCCCN2c2cc(C)nc(N)n2)c(Cl)cc1OCC(=O)O` [D-160], for which the IC50 was at least 5 µM.

In turn, `Cc1cc(N2CCCOC[C@H]2c2cc(N)c(OC(F)(F)F)cc2Cl)nc(N)n1` [D-161] came in with a 50% inhibitory concentration (IC50) of at least 5 µM. Still for that read-out and setting: as for `CCc1cc(N2CCCOC[C@H]2c2ccc(OS(C)(=O)=O)cc2Cl)nc(N)n1` [D-162], the figure is at least 5 µM. Still for that read-out and setting: as for `Cc1cc(N2CCCOC[C@H]2c2ccc(C3CCN(C4COC4)CC3)cc2Cl)nc(N)n1` [D-163], the figure is at least 5 µM. The same measure, in the same setting: as for `Cc1cc(N2CCCOC[C@H]2c2cc(CN)c(C)cc2Cl)nc(N)n1` [D-164], the figure is at least 5 µM; as for `Cc1cc(N2CCCOC[C@H]2c2cc(O)c(C)cc2Cl)nc(N)n1` [D-165], at least 5 µM. On to `Cc1cc(N2CCCOC[C@@H]2c2cnc(CS(C)(=O)=O)cc2Cl)nc(N)n1` [D-166], for which the IC50 is at least 5 µM. Same read-out and setting: as for `Cc1cc(N2CCCOC[C@H]2c2ncc(CS(C)(=O)=O)cc2Cl)nc(N)n1` [D-167], the figure is at least 5 µM; as for `COc1ccc([C@@H]2COCCCN2c2cc(C)nc(N)n2)c(Cl)c1` [D-168], at least 5 µM. Still for that read-out and setting: next, `Cc1cc(N2CCCOC[C@H]2c2cc(O)c(CS(C)(=O)=O)cc2Cl)nc(N)n1` [D-171]: at least 5 µM; `Cc1cc(N2CCCOCC2c2cnc(CS(C)(=O)=O)nc2O)nc(N)n1` [D-172]: at least 5 µM; `Cc1cc(N2CCCOC[C@H]2c2ccc(CS(C)(=O)=O)nc2OC(F)F)nc(N)n1` [D-173]: at least 5 µM.

Compound `Cc1cc(N2CCCOC[C@H]2c2cc(CN)c(Cl)cc2C)nc(N)n1` [D-174] showed a 50% inhibitory concentration (IC50) of at least 5 µM. Still for that read-out and setting: next, `Cc1cc(N2CCCOCC2c2ccc3ncnn3c2)nc(N)n1` [D-175]: at least 5 µM; `CCOc1cc([C@@H]2COCCCN2c2cc(C)nc(N)n2)c(Cl)cc1OCC(N)=O` [D-176]: at least 5 µM.

Compound `Cc1cc(N2CCCOCC2c2ccc(Cl)cc2C(=O)O)nc(N)n1` [D-177] registered an IC50 of at least 5 µM.

In turn, `C#CCOc1cc(Cl)c([C@@H]2COCCCN2c2cc(C)nc(N)n2)cc1OC` [D-178] had an IC50 of at least 5 µM.

`CCc1cc(N2CCCOC[C@H]2c2cc(O)c(OC)cc2Cl)nc(N)n1` [D-179] returned an IC50 of at least 5 µM. On the same count and under the same terms, as for `Cc1cc(N2CCCOC[C@H]2c2cc(O)c(C(N)=O)cc2Cl)nc(N)n1` [D-180], the figure is at least 5 µM; as for `Cc1cc(N2CCCOC[C@@H]2c2cc3c(cc2Cl)NC[C@@](C)(C(=O)O)O3)nc(N)n1` [D-181], at least 5 µM. `CNC(=O)c1cc(Cl)c([C@@H]2COCCCN2c2cc(C)nc(N)n2)cc1O` [D-182]: the IC50 was at least 5 µM. The compound `Cc1cc(N2CCCOC[C@H]2c2cc(O)c(C(=O)N(C)C)cc2Cl)nc(N)n1` [D-183] displayed an IC50 of at least 5 µM. The same measure, in the same setting: as for `Cc1cc(N2CCCOC[C@H]2c2cc(O)c(OC(F)(F)F)cc2Cl)nc(N)n1` [D-184], the figure is at least 5 µM. The same measure, in the same setting: next, `Cc1cc(N2CCCOC[C@H]2c2cc(O)c(C(=O)NCCO)cc2Cl)nc(N)n1` [D-185]: at least 5 µM; `Cc1cc(N2CCCOC[C@H]2c2cc(O)c(C(=O)NC3CC3)cc2Cl)nc(N)n1` [D-186]: at least 5 µM; `Cc1cc(N2CCCOCC2c2ccc(C(=O)O)cc2Cl)nc(N)n1` [D-187]: at least 5 µM. On the same count and under the same terms, next, `CS(=O)(=O)c1ccc(C2COCCCN2c2cc(C(F)(F)F)nc(N)n2)c(Cl)c1` [D-188]: at least 5 µM. Turning to `Cc1cc(N2CCCOC[C@H]2c2cc(O)c(C(=O)N3CCOCC3)cc2Cl)nc(N)n1` [D-189], the IC50 is at least 5 µM. In turn, `Cc1cc(N2CCCOCC2c2ccc(S(C)(=O)=O)cc2C#N)nc(N)n1` [D-190] returned a concentration for half-maximal inhibition (IC50) of at least 5 µM. Still for that read-out and setting: next, `Cc1cc(N2CCCOC[C@@H]2c2ccc(C(C)(C)S(C)(=O)=O)cc2Cl)nc(N)n1` [D-191]: at least 5 µM.

Broadly, the IC50 is the concentration at which inhibition is half-maximal.

Source of the values: patent US11440907B1 (Merck Patent GmbH, priority 2018, dated 2022).
